Test results as given in patent US7465720B2, “Proteasome inhibiting β-lactam compounds” (President and Fellows of Harvard College, priority 2005, dated 2008).
Read-outs that look alike come from different tables or passages of the source. Where a SMILES comes first, the peptide text is derived from it. The star is where a group is joined. Cbz = O=C(OCc1ccccc1)*

Columns and labels:
[1] = Stability of Compound 3 in solution at pH 7; format: physicochemical
From the text: Oxidative cleavage of the (S)(−)-(4-methoxyphenyl)-ethylamide protecting group in Compound 14 cleanly afforded the β-lactam, Compound 3, in 89% yield.

[2] = target: T1, 20S proteasome (Homo sapiens, UniProt P28074); assay: Inactivation of 20S proteasome, hydrolysis of Suc-Leu-Leu-Val-Tyr-AMC followed by fluorescence; format: biochemical; settings: for kinact/KI: read-out: kobs/[3]
T1 construct: purchased Boston Biochem
Method: Determination of the inhibitory activity of Compound 3 against the 20S proteasome (see reference 12) was carried out by a modification of the method reported by Dick et al. See reference 11. […] See reference 12. The progress of proteasome inactivation was determined by addition of Suc-LLVY-AMC to a 2 mL aliquot of the incubation experiment and monitoring the rate of production of free AMC by fluorescence spectrophotometry.
A plot of .ln(fluorescence/time) vs. time provided a linear decay whose slope is kobs for proteasome inactivation (FIG. 2). The rate of proteasome inactivation was proportional to the amount of Compound 3 present in the incubation experiments. The 10 μM and 30 μM time course experiments gave values for kobs/[3] as 7 M-1s-1 and 6.7 M-1s-1 respectively. In order to monitor background inactivation of 20S proteasome (see reference 13), each of these of experiments was run side by side with a control experiment identical in all respects except for the exclusion of Compound 3.
Inactivation of 20S proteasome by Compound 3. To separate 50 mL vials containing 12 mL of pH 7.9 buffer (20 mM hepes, 0.5 mM EDTA) was added 60 μL of a stock solution of 20S proteasome (20 mM Hepes, 0.5 mM EDTA, pH 7.9, 100 μg/mL) and aqueous sodium dodecylsulfate (10% w/v, 30 μL). The initial rate of hydrolysis of Suc-Leu-Leu-Val-TyrAMC was determined by addition of a solution of Suc-Leu-Leu-Val-Tyr-AMC (10 mM in DMSO, 10 μL) to a 2 mL aliquot of each of the above solutions. The initial rate of free AMC production was monitored at 37° C. by fluorescence spectrophotometry as described by Dick et al.* To one of the stock solutions was added a solution of the β-lactam 3 (10 mM in DMSO, 12 μL). Both solutions were incubated side by side at 37° C. Aliquots were removed at time points as assayed as above. The data for both the 10 μM experiment and an identical experiment utilizing 30 μM using a 30 mM stock solution of 3 are tabulated below. * See, McCormack, T.; Baumeister, W.; Grenier, L.; Moomaw, C.; Plamondon, L.; Pramanik, B.; Slaughter, C.; Soucy, F.; Stein, R.; Zuhl, F.; Dick, L., J. Biol. Chem. 1996, 272, 26103-26109.

[3] = test system: PC12 cells; settings: cited from earlier work
[4] = Part 2, 30 μM of Compound 3, time 0 mm
[5] = Part 2, 30 μM of Compound 3, time 47 mm
[6] = Part 2, 30 μM of Compound 3, time 101 mm
[7] = Part 2, 30 μM of Compound 3, time 177 mm

SMILES: CC(C)[C@H](O)[C@@]12NC(=O)[C@H](CCCl)[C@@H]1NC2=O [Compound 3]
- stability compared with the corresponding β-lactone and Compounds 1 and 2 ([1]; found to date): much more stable
- stability at pH 7 ([1]; pH 7, 23° C., 24 h): completely stable
- remaining activity at 10 µM ([2]; 10 μM 3, after 9.5 h, read-out: initial proteasome activity remaining): < 10%
- % Initial Velocity ([2]; 10 μM Compound 3, time 0 h): 100%
- Experiment with 10 μM 3 (units F/s) ([2]; 10 μM Compound 3, time 0 h): 0.59 units F/s
- % Initial Velocity ([2]; 10 μM Compound 3, time 1.5 h): 57%
- Experiment with 10 μM 3 (units F/s) ([2]; 10 μM Compound 3, time 1.5 h): 0.337 units F/s
- % Initial Velocity ([2]; 10 μM Compound 3, time 2.5 h): 45%
- Experiment with 10 μM 3 (units F/s) ([2]; 10 μM Compound 3, time 2.5 h): 0.267 units F/s
- % Initial Velocity ([2]; 10 μM Compound 3, time 4.5 h): 26%
- Experiment with 10 μM 3 (units F/s) ([2]; 10 μM Compound 3, time 4.5 h): 0.156 units F/s
- % Initial Velocity ([2]; 10 μM Compound 3, time 6.5 h): 15%
- Experiment with 10 μM 3 (units F/s) ([2]; 10 μM Compound 3, time 6.5 h): 0.09 units F/s
- % Initial Velocity ([2]; 10 μM Compound 3, time 9.5 h): 7.4%
- Experiment with 10 μM 3 (units F/s) ([2]; 10 μM Compound 3, time 9.5 h): 0.044 units F/s
- remaining activity at 30 µM ([2]; 30 μM 3, after 3 h, read-out: initial proteasome activity remaining): < 10%
- % Initial Velocity [2, 4]: 100%
- Experiment with 10 μM 3 (units F/s) [2, 4]: 0.526 units F/s
- % Initial Velocity [2, 5]: 44%
- Experiment with 10 μM 3 (units F/s) [2, 5]: .233 units F/s
- % Initial Velocity [2, 6]: 17%
- Experiment with 10 μM 3 (units F/s) [2, 6]: 0.090 units F/s
- % Initial Velocity [2, 7]: 7%
- Experiment with 10 μM 3 (units F/s) [2, 7]: 0.039 units F/s
- kinact/KI ([2]; pH 7.9, 10 μM time course): 7 M⁻¹ s⁻¹
- kinact/KI ([2]; pH 7.9, 30 μM time course): 6.7 M⁻¹ s⁻¹
- melting point: 205 to 207 °C

SMILES: CC(C)C[C@@H](C=O)NC(=O)[C@H](CC(C)C)NC(=O)[C@H](CC(C)C)NC(=O)OCc1ccccc1 [benzyloxycarbonyl (Z)-Leu-Leu-leucinal] (Cbz-Leu-Leu-Leu-aldehyde)
- optimal concentration for inducing neurite outgrowth [3]: 30 nM
